Source: US20250041429A1, “COMPOUND HAVING BTK PROTEIN DEGRADATION ACTIVITY, AND MEDICAL USES THEREOF” (UBIX THERAPEUTICS, INC., priority 2021, published 2025)

Biological target: T1, BTK protein (Homo sapiens, UniProt Q06187)
T1 construct: endogenous in cells; host or cells: TMD-8 cells
Experiment: Measurement of BTK protein degradation ability in TMD-8 cells (Western blotting)
Format: cell-based
Settings: harvested after 24 hours; for BTK degradation (%) 1 nM: compound 1 nM; for BTK degradation (%) 10 nM: compound 10 nM; for BTK degradation (%) 100 nM: compound 100 nM
Outline: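 TMD-8 cells (1×10^6/mL) were treated for 24 h with compound at 0.1, 1, 10 μM or 0.0001–0.1 μM, with DMSO as vehicle control. RIPA lysates were normalized by BCA assay. BTK was detected by Western blot with anti-BTK, using GAPDH or β-actin as loading controls, and imaged on LI-COR Odyssey.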

T1 sequence (Q06187 whole entry): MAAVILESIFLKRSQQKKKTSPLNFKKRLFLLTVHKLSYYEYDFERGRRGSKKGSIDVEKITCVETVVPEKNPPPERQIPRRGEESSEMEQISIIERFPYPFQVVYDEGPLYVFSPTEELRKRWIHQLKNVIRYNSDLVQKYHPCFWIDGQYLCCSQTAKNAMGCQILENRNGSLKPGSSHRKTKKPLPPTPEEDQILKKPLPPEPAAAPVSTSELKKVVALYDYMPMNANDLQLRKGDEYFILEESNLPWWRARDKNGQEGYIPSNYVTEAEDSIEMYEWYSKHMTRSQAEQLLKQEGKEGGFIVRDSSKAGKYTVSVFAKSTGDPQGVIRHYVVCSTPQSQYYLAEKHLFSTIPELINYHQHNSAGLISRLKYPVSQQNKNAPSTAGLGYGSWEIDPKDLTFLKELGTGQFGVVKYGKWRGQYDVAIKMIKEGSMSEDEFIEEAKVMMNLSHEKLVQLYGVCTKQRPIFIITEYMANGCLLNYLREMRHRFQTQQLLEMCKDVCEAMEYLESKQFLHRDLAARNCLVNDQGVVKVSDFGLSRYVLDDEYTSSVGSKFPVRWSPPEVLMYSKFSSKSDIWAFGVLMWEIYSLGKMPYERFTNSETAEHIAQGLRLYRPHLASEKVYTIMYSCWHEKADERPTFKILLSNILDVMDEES

| BTK degradation (%) 1 nM | BTK degradation (%) 10 nM | BTK degradation (%) 100 nM | Structure (SMILES) |
| --- | --- | --- | --- |
| 71.0% | 95.5% | 98.5% | Cc1cc(-c2ccnc(Nc3ccc(N4CCN(CC5CN(C(=O)c6cccc(NC7CCC(=O)NC7=O)c6)C5)CC4)cc3)n2)ccc1CNC(=O)c1cn(C(C)(C)C)nn1 (stereo not drawn) [Example 98, 1-(tert-butyl)-N-(4-(2-((4-(4-((1-(3-((2,6-dioxopiperidin-3-yl)amino)benzoyl)azetidin-3-yl)methyl)piperazin-1-yl)phenyl)amino)pyrimidin-4-yl)-2-methylbenzyl)-1H-1,2,3-triazole-4-carboxamide] |
| 46.5% | 92.0% | 98.5% | Cc1cc(-c2ccnc(Nc3ccc(C4CCN(CC5CCN(C(=O)c6cccc(NC7CCC(=O)NC7=O)c6)CC5)CC4)cc3)n2)ccc1CNC(=O)N1CC(OC(C)C)C1 (stereo not drawn) [Example 99, N-(4-(2-((4-(1-((1-(3-((2,6-dioxopiperidin-3-yl)amino)benzoyl)piperidin-4-yl)methyl)piperidin-4-yl)phenyl)amino)pyrimidin-4-yl)-2-methylbenzyl)-3-isopropoxyazetidine-1-carboxamide] |
| 40.5% | 91.0% | 98.0% | Cc1cc(-c2ccnc(Nc3ccc(C4CCN(CC5CN(C(=O)c6cccc(NC7CCC(=O)NC7=O)c6)C5)CC4)cc3)n2)ccc1CNC(=O)N1CC(OC(C)C)C1 (stereo not drawn) [Example 100, N-(4-(2-((4-(1-((1-(3-((2,6-dioxopiperidin-3-yl)amino)benzoyl)azetidin-3-yl)methyl)piperidin-4-yl)phenyl)amino)pyrimidin-4-yl)-2-methylbenzyl)-3-isopropoxyazetidine-1-carboxamide] |
| 50.5% | 98.0% | 100.0% | Cc1cc(-c2ccnc(Nc3ccc(C4CN(CC5CCN(C(=O)c6cccc(NC7CCC(=O)NC7=O)c6)CC5)C4)cc3)n2)ccc1CNC(=O)N1CC(OC(C)C)C1 (stereo not drawn) [Example 101, N-(4-(2-((4-(1-((1-(3-((2,6-dioxopiperidin-3-yl)amino)benzoyl)piperidin-4-yl)methyl)azetidin-3-yl)phenyl)amino)pyrimidin-4-yl)-2-methylbenzyl)-3-isopropoxyazetidine-1-carboxamide] |
| 19.0% | 82.5% | 94.0% | Cc1cc(-c2ccnc(Nc3ccc(N4CCN(CC5CCN(C(=O)c6cccc(OC7CCC(=O)NC7=O)c6)CC5)CC4)cc3)n2)ccc1CNC(=O)N1CC(OC(C)C)C1 (stereo not drawn) [Example 102, N-(4-(2-((4-(4-((1-(3-((2,6-dioxopiperidin-3-yl)oxy)benzoyl)piperidin-4-yl)methyl)piperazin-1-yl)phenyl)amino)pyrimidin-4-yl)-2-methylbenzyl)-3-isopropoxyazetidine-1-carboxamide] |
| −12.5% | 69.0% | 97.0% | Cc1cc(-c2ccnc(Nc3ccc(N4CCN(C5CCN(C(=O)c6cccc(NC7CCC(=O)NC7=O)c6)CC5)CC4)cc3)n2)ccc1CNC(=O)N1CC(OC(C)C)C1 (stereo not drawn) [Example 103, N-(4-(2-((4-(4-(1-(3-((2,6-dioxopiperidin-3-yl)amino)benzoyl)piperidin-4-yl)piperazin-1-yl)phenyl)amino)pyrimidin-4-yl)-2-methylbenzyl)-3-isopropoxyazetidine-1-carboxamide] |
| −9.0% | 39.0% | 95.5% | Cc1cc(-c2ccnc(Nc3ccc(C4CCN(C5CCN(C(=O)c6cccc(NC7CCC(=O)NC7=O)c6)CC5)CC4)cc3)n2)ccc1CNC(=O)N1CC(OC(C)C)C1 (stereo not drawn) [Example 104, N-(4-(2-((4-(1′-(3-((2,6-dioxopiperidin-3-yl)amino)benzoyl)-[1,4′-bipiperidin]-4-yl)phenyl)amino)pyrimidin-4-yl)-2-methylbenzyl)-3-isopropoxyazetidine-1-carboxamide] |
| 35% | 91.5% | 98% | Cc1cc(-c2ccnc(Nc3ccc(N4CCN(CC5CCN(CC(=O)Nc6cccc(NC7CCC(=O)NC7=O)c6)CC5)CC4)cc3)n2)ccc1CNC(=O)N1CC(OC(C)C)C1 (stereo not drawn) [Example 105, N-(4-(2-((4-(4-((1-(2-((3-((2,6-dioxopiperidin-3-yl)amino)phenyl)amino)-2-oxoethyl)piperidin-4-yl)methyl)piperazin-1-yl)phenyl)amino)pyrimidin-4-yl)-2-methylbenzyl)-3-isopropoxyazetidine-1-carboxamide] |
| 1% | 20% | 76% | Cc1c(NC(=O)N2CC(OC(C)C)C2)cc(F)cc1-c1ccnc(Nc2ccc(N3CCN(CC4CCN(CC(=O)Nc5cccc(NC6CCC(=O)NC6=O)c5)CC4)CC3)cc2)n1 (stereo not drawn) [Example 106, N-(3-(2-((4-(4-((1-(2-((3-((2,6-dioxopiperidin-3-yl)amino)phenyl)amino)-2-oxoethyl)piperidin-4-yl)methyl)piperazin-1-yl)phenyl)amino)pyrimidin-4-yl)-5-fluoro-2-methylphenyl)-3-isopropoxyazetidine-1-carboxamide] |
| 63.5% | 95% | 98% | Cc1cc(-c2ccnc(Nc3ccc(N4CCN(CC5CN(c6ccc7c(n6)CN(C6CCC(=O)NC6=O)C7=O)C5)CC4)cc3)n2)ccc1CNC(=O)N1CC(OC(C)C)C1 (stereo not drawn) [Example 107, N-(4-(2-((4-(4-((1-(6-(2,6-dioxopiperidin-3-yl)-5-oxo-6,7-dihydro-5H-pyrrolo[3,4-b]pyridin-2-yl)azetidin-3-yl)methyl)piperazin-1-yl)phenyl)amino)pyrimidin-4-yl)-2-methylbenzyl)-3-isopropoxyazetidine-1-carboxamide] |
| 21.5% | 73% | 94.5% | Cc1c(NC(=O)N2CC(OC(C)C)C2)cc(F)cc1-c1ccnc(Nc2ccc(N3CCN(CC4CN(c5ccc6c(n5)CN(C5CCC(=O)NC5=O)C6=O)C4)CC3)cc2)n1 (stereo not drawn) [Example 108, N-(3-(2-((4-(4-((1-(6-(2,6-dioxopiperidin-3-yl)-5-oxo-6,7-dihydro-5H-pyrrolo[3,4-b]pyridin-2-yl)azetidin-3-yl)methyl)piperazin-1-yl)phenyl)amino)pyrimidin-4-yl)-5-fluoro-2-methylphenyl)-3-isopropoxyazetidine-1-carboxamide] |
| 41.5% | 94.0% | 99.5% | Cc1cc(-c2ccnc(Nc3ccc(N4CCN(C5CCN(c6ccc7c(c6)C(=O)N(C6CCC(=O)NC6=O)C7=O)CC5)CC4)cc3)n2)ccc1CNC(=O)N1CC(OC(C)C)C1 (stereo not drawn) [Example 109, N-(4-(2-((4-(4-(1-(2-(2,6-dioxopiperidin-3-yl)-1,3-dioxoisoindolin-5-yl)piperidin-4-yl)piperazin-1-yl)phenyl)amino)pyrimidin-4-yl)-2-methylbenzyl)-3-isopropoxyazetidine-1-carboxamide] |
| 28.0% | 92.0% | 99.5% | Cc1cc(-c2ccnc(Nc3ccc(C4CCN(C5CCN(c6ccc7c(c6)C(=O)N(C6CCC(=O)NC6=O)C7=O)CC5)CC4)cc3)n2)ccc1CNC(=O)N1CC(OC(C)C)C1 (stereo not drawn) [Example 110, N-(4-(2-((4-(1′-(2-(2,6-dioxopiperidin-3-yl)-1,3-dioxoisoindolin-5-yl)-[1,4′-bipiperidin]-4-yl)phenyl)amino)pyrimidin-4-yl)-2-methylbenzyl)-3-isopropoxyazetidine-1-carboxamide] |
| 44% | 93.5% | 99.5% | Cc1cc(-c2ccnc(Nc3ccc(N4CCC(CN5CCN(c6ccc7c(c6)C(=O)N(C6CCC(=O)NC6=O)C7=O)CC5)CC4)cc3)n2)ccc1CNC(=O)N1CC(OC(C)C)C1 (stereo not drawn) [Example 111, N-(4-(2-((4-(4-((4-(2-(2,6-dioxopiperidin-3-yl)-1,3-dioxoisoindolin-5-yl)piperazin-1-yl)methyl)piperidin-1-yl)phenyl)amino)pyrimidin-4-yl)-2-methylbenzyl)-3-isopropoxyazetidine-1-carboxamide] |
| 44.0% | 97.0% | 100.0% | Cc1cc(-c2ccnc(Nc3ccc(N4CC(CN5CCN(c6ccc7c(c6)C(=O)N(C6CCC(=O)NC6=O)C7=O)CC5)C4)cc3)n2)ccc1CNC(=O)N1CC(OC(C)C)C1 (stereo not drawn) [Example 112, N-(4-(2-((4-(3-((4-(2-(2,6-dioxopiperidin-3-yl)-1,3-dioxoisoindolin-5-yl)piperazin-1-yl)methyl)azetidin-1-yl)phenyl)amino)pyrimidin-4-yl)-2-methylbenzyl)-3-isopropoxyazetidine-1-carboxamide] |
| 39.5% | 97.0% | 100.0% | Cc1cc(-c2ccnc(Nc3ccc(N4CC(CN5CCN(C(=O)c6cccc(NC7CCC(=O)NC7=O)c6)CC5)C4)cc3)n2)ccc1CNC(=O)N1CC(OC(C)C)C1 (stereo not drawn) [Example 113, N-(4-(2-((4-(3-((4-(3-((2,6-dioxopiperidin-3-yl)amino)benzoyl)piperazin-1-yl)methyl)azetidin-1-yl)phenyl)amino)pyrimidin-4-yl)-2-methylbenzyl)-3-isopropoxyazetidine-1-carboxamide] |
| 59.0% | 99.5% | 99.5% | Cc1cc(-c2ccnc(Nc3ccc(N4CCC(CN5CCN(C(=O)c6cccc(NC7CCC(=O)NC7=O)c6)CC5)CC4)cc3)n2)ccc1CNC(=O)N1CC(OC(C)C)C1 (stereo not drawn) [Example 114, N-(4-(2-((4-(4-((4-(3-((2,6-dioxopiperidin-3-yl)amino)benzoyl)piperazin-1-yl)methyl)piperidin-1-yl)phenyl)amino)pyrimidin-4-yl)-2-methylbenzyl)-3-isopropoxyazetidine-1-carboxamide] |
